According to paper PMC11277446, “Discovery of Cell-Permeable Allosteric Inhibitors of Liver Pyruvate Kinase: Design and Synthesis of Sulfone-Based Urolithins” (International Journal of Molecular Sciences, 2024):

Experiments:
[1] = test system: PKL; design: method as in PMID 36753880; settings: 10 μM in liver cell lysate; cited from earlier work
[2] = test system: PKL; settings: Figure 2, background data; cited from earlier work
[3] = test system: HepG2 de novo lipogenic (DNL) steatosis model; design: method as in PMID 37674987; settings: cited from earlier work
[4] = target: T1, PKL (Homo sapiens, UniProt P30613); assay: Pyruvate kinase activity kinetic assay on HepG2 KO (PKL only) cell protein lysate; format: biochemical
T1 construct: HepG2 KO cells were lysed and protein lysated with CelLytic M; host or cells: HepG2 PKM CRISPR KO cells
T1 sequence (P30613 1-543 isoform P30613-2): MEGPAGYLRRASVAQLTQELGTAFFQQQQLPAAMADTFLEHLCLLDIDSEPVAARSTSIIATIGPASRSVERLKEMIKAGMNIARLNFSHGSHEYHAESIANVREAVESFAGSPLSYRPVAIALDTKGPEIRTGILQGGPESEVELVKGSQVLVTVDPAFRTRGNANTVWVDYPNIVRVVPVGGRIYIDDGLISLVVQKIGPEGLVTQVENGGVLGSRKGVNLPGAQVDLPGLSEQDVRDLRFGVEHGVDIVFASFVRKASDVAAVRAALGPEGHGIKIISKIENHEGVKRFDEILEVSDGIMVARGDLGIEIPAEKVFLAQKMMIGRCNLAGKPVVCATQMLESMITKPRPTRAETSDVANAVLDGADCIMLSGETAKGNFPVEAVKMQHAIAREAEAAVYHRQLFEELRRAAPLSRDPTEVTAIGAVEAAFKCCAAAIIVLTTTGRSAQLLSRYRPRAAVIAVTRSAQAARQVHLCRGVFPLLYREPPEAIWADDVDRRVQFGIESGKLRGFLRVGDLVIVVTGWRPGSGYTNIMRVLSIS
Experimental: (§1) HepG2 KO cells were lysed and protein lysated with CelLytic M (C2978, Sigma-Aldrich, St. Louis, MO, USA) lysis buffer. The effect of 10 µM compounds on pyruvate kinase activity on protein lysate was measured with the Pyruvate Kinase Assay Kit (ab83432, Abcam, Cambridge, UK), followed by the manufacturer’s instructions. 2 × 10^4 HepG2 WT cells and 1 × 10^5 HepG2 KO cells were seeded into 96-well plates for a pyruvate kinase activity assay on cells. Drugs were treated at 20 µM concentration on the cell for 4 h and washed with 250 µL of PBS. Cells were lysed with 50 µL PK assay buffer (ab83432, Abcam) and started reaction and kinetic O.D measurement with 50 µL PK assay buffer that contained the assay component (ab83432, Abcam). O.D. values were measured with a microplate reader (Hidex Sense Beta Plus, Turku, Finland) at 570 nm wavelength.

[5] = target: T1, PKL; assay: as above; format: biochemical; settings: read-out: IC50 of PKL enzymatic activity inhibition
[6] = target: T2, PKL in HepG2 KO cells (Homo sapiens, UniProt P30613); assay: Pyruvate kinase activity assay on compound-treated HepG2 KO cells (whole-cell assay); format: cell-based
T2 construct: host or cells: HepG2 PKM CRISPR KO cells
T2 sequence (P30613 1-543 isoform P30613-2): as above
Experimental: as §1

[7] = test system: PK activity in HepG2 WT cells (PKM and PKL); assay: Pyruvate kinase activity assay on compound-treated HepG2 WT cells; format: cell-based, human; settings: 20 µM, 4 h
Experimental: as §1

[8] = target: T3, PKM (Homo sapiens, UniProt P14618); assay: Cellular Thermal Shift Assay (CETSA), PKM; format: cell-based; settings: HepG2 WT cells, 2 h treatment, 60 °C heat shock 5 min, western blot
T3 construct: HepG2 WT cells were trypsinized and transferred into a 1.5 mL tube; host or cells: HepG2 WT cells
T3 sequence (P14618 2-531 limits assumed): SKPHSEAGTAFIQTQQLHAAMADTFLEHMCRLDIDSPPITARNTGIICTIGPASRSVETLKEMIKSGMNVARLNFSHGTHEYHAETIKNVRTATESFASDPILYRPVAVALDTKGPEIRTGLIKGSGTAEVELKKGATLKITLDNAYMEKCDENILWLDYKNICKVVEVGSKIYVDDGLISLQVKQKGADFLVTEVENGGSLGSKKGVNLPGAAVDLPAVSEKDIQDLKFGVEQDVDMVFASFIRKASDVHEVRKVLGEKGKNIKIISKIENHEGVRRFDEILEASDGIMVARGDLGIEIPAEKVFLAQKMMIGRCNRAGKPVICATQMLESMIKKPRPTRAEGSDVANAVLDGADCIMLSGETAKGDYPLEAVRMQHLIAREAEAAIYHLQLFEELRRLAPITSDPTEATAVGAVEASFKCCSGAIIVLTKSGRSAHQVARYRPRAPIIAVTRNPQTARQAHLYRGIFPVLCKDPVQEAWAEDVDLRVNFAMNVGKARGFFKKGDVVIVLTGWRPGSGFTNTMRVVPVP
Experimental: (§2) HepG2 WT cells were trypsinized and transferred into a 1.5 mL tube at 500,000 cells per mL concentration. Compound 15e was treated with 10 µM and 20 µM in the 1.5 mL tube and incubated for 2 h in a 37 °C CO2 incubator. Tubes sustained heat shock at 60 °C for 5 min. with a pre-heated heat block. After centrifugation for heated cells at 13,000 rpm for 1 min, cell pellets were lysed with 50 µL of Native lysis Buffer (ab156035, Abcam). Centrifugation was again used to purify soluble proteins in a lysed solution, and the same volume (9 µL) of each group was analyzed using Western blot.

[9] = target: T1, PKL; assay: Cellular Thermal Shift Assay (CETSA), PKL; format: cell-based; settings: HepG2 WT cells, 2 h treatment, 60 °C heat shock 5 min, western blot
Experimental: as §2

[10] = test system: HepG2 de novo lipogenic (DNL) steatosis model; assay: TAG measurement in HepG2 DNL steatosis model; format: cell-based, human; settings: one week
Experimental: (§3) HepG2 wild-type cells and HepG2 PKM CRISPR KO cells were purchased from the genome engineering company Synthego (Menlo Park, CA, USA). Cells were maintained with growth media RPMI 1640 (R2405, Sigma-Aldrich) and supplemented with 10% fetal bovine serum (FBS, F7524, Sigma-Aldrich) and 1% P/S (P4333, Sigma-Aldrich). Steatosis induction media was prepared as DMEM high glucose (D0819, Sigma-Aldrich) with 10% FBS, 1% P/S media supplemented with 10 µg/mL insulin (I9278, Sigma-Aldrich), and 10 µM T0901317 (T2320, Sigma-Aldrich) for one week. HepG2 cells were seeded 6 × 10^4 cells per well into a 96-well plate for TAG and MTT assays after steatosis and 1 × 10^6 cells per well into a 6-well plate for western blot analysis after steatosis. HepG2 cells were incubated with steatosis-inducing media for one week by 3 days + 2 days + 2 days with a total of three media exchanges.
(§4) HepG2 cells were seeded at 6 × 10^4 cells per well into 96-well plates and induced steatosis for one week with a designated concentration of small molecules. After steatosis induction, cells were washed with 200 µL of PBS, and triglyceride contents were measured by the Triglyceride Assay Kit-Quantification (ab65336, Abcam) following the manufacturer’s instructions. O.D. values were detected with a microplate reader at 570 nm (Hidex Sense Beta Plus). A 5 mg/mL MTT (M2128, Sigma-Aldrich) solution in PBS (10 µL) was added to each well for the MTT assay. After 1 h, the MTT solution and all media were removed from the wells. 100 μL of DMSO was added and mixed to dissolve the formazan crystals. Cell viability was analyzed by measuring the absorbance of the dissolved formazan in a microplate reader at a wavelength of 570 nm with a microplate reader (Hidex Sense Beta Plus).

[11] = test system: HepG2 de novo lipogenic (DNL) steatosis model; assay: MTT cell viability assay in HepG2 DNL steatosis model; format: cell-based, human
Experimental: as §3, with “HepG2 cells were incubated with steatosis-inducing media for one week by 3 days + 2 days + 2 days with a total of three media exchanges.” left out
as §4, with “A 5 mg/mL MTT (M2128, Sigma-Aldrich) solution in PBS (10 µL) was added to each well for the MTT assay. After 1 h, the MTT solution and all media were removed from the wells. 100 μL of DMSO was added and mixed to dissolve the formazan crystals.” left out

[12] = test system: FASN; assay: Western blot of DNL pathway proteins in HepG2 steatosis model, FASN; format: cell-based, human; settings: 5 µM, one week
Experimental: (§5) After steatosis induction with a designated concentration of compounds, whole cell lysate was prepared with CelLytic M (C2978, Sigma-Aldrich) buffer. SDS PAGE was performed using Mini-PROTEAN® TGX™ Precast Gels (Bio-Rad, Hercules, CA, USA) and transferred using the Trans-Blot® Turbo™ Transfer System (Bio-Rad). FASN (ab22759, Abcam), ChREBP (92809, Abcam), PKL (06653, Sigma), PKM (4053S, Cell Signaling Technology, Danvers, MA, USA), β-actin (ab8227, Abcam), and GAPDH (sc-47724, Santa Cruz Biotechnology, Inc., Dallas, TX, USA) were blotted as primary antibodies overnight. Secondary antibodies, Goat Anti-Rabbit HRP (ab205718, Abcam) and goat anti-mouse IgG-HRP (sc2005, Santa Cruz Biotechnology, Inc.), were blotted for one hour. The protein band was detected with ImageQuantTMLAS 500 (29-0050-63, GE Healthcare Bio-Sciences AB, Uppsala, Sweden).

[13] = test system: PKL; assay: Western blot of DNL pathway proteins in HepG2 steatosis model, PKL; format: cell-based, human; settings: 5 µM, one week
Experimental: as §5

[14] = test system: ChREBP; assay: Western blot of DNL pathway proteins in HepG2 steatosis model, ChREBP; format: cell-based, human; settings: 5 µM, one week
Experimental: as §5

[15] = test system: PKM; assay: Western blot of DNL pathway proteins in HepG2 steatosis model, PKM; format: cell-based, human; settings: 5 µM, one week
Experimental: as §5

O=S1(=O)c2cc(O)c(O)cc2-c2ccc(C(F)(F)F)cc2N1Cc1ccc(F)cc1 [18e, 6-(4-fluorobenzyl)-2,3-dihydroxy-8-(trifluoromethyl)-6H-dibenzo[c,e][1,2]thiazine 5,5-dioxide]
melting point: 189 to 190 °C

O=c1oc2c(O)c(O)cc3c(=O)oc4c(O)c(O)cc1c4c23 [Ellagic acid, ellagic acid]
inhibition of PKL [1]: 21%
inhibition on whole cell assay [2]: didn't observe inhibition on whole cell assay

N#Cc1c(NC(=O)c2cccc3ccccc23)sc2c1CCCC2 [JNK-IN-5A]
effect on TAG [3]: reduced TAG

O=S(=O)(NCc1ccc(F)cc1)c1cc(O)c(O)cc1-c1ccc(O)c(O)c1 [12d, N-(4-fluorobenzyl)-3′,4,4′,5-tetrahydroxy-[1,1′-biphenyl]-2-sulfonamide]
inhibition at 10 µM [4]: 44.1%
IC50 [5]: 18.7 µM

O=S1(=O)c2cc(O)c(O)cc2-c2cc(O)ccc2N1Cc1ccc(F)cc1 [18a, 6-(4-fluorobenzyl)-2,3,9-trihydroxy-6H-dibenzo[c,e][1,2]thiazine 5,5-dioxide]
inhibition at 10 µM [4]: 50.8%
IC50 [5]: 11.5 µM

O=c1oc2cc(O)ccc2c2cc(O)c(O)cc12 [Urolithin C, urolithin C, reference compound]
inhibition at 10 µM [4]: 33%
PKL inhibition in whole cells ([6]; 20 µM, 4 h, HepG2 KO cells): did not inhibit PKL activity in cells
IC50 [5]: 4.7 µM
inhibition of PKL [1]: 33%

O=S1(=O)c2cc(O)c(O)cc2-c2cc(O)c(O)cc2N1Cc1ccccc1 [15d, 6-benzyl-2,3,8,9-tetrahydroxy-6H-dibenzo[c,e][1,2]thiazine 5,5-dioxide]
inhibition at 10 µM [4]: 29.8%
IC50 [5]: 7.1 µM

O=S1(=O)c2cc(O)c(O)cc2-c2cc(O)ccc2N1Cc1ccccc1 [15a, 6-benzyl-2,3,9-trihydroxy-6H-dibenzo[c,e][1,2]thiazine 5,5-dioxide]
inhibition at 10 µM [4]: 47.6%
IC50 [5]: 17.3 µM

O=S(=O)(NCc1ccccc1)c1cc(O)c(O)cc1-c1ccc(O)c(O)c1 [9d, N-benzyl-3′,4,4′,5-tetrahydroxy-[1,1′-biphenyl]-2-sulfonamide]
inhibition at 10 µM [4]: 40.9%
IC50 [5]: 4.3 µM

O=S1(=O)c2cc(O)c(O)cc2-c2ccc(C(F)(F)F)cc2N1Cc1ccccc1 [15e, 6-benzyl-2,3-dihydroxy-8-(trifluoromethyl)-6H-dibenzo[c,e][1,2]thiazine 5,5-dioxide]
inhibition at 10 µM [4]: 42.9%
activity at 20 µM ([6]; 20 µM in culture media for 4 h, HepG2 KO cells): 67.1%
PKL inhibition in whole cells ([6]; 20 µM, 4 h, HepG2 KO cells): significant PKL inhibition
inhibition at 20 µM ([6]; 20 µM, 4 h, HepG2 KO cells (PKL only), Figure 6a, read-out: inhibition of PK activity): 25%
activation of PK activity [7]: 9%
increase in PKM level (CETSA) [8]: 12%
decrease in PKL level (CETSA) [9]: 38%
TAG contents ([10]; 0.625 µM): 80.4% ± 3.2
TAG contents ([10]; 1.25 µM): 62.7% ± 2.9
TAG contents ([10]; 2.5 µM): 56.3% ± 1.9
TAG contents ([10]; 5 µM): 55.6% ± 2.4
cytotoxicity ([11]; 5 µM to 0.625 µM, one week): did not show cytotoxicity
toxicity ([11]; 10 µM, one-week DNL steatosis procedure): high toxicity
reduction in expression level of FASN [12]: up to 79%
reduction in expression level of PKL [13]: 45%
protein level of ChREBP [14]: remained unaffected
protein level of PKM [15]: remained unaffected
IC50 [5]: 10.8 µM
